{
  "source": "patent US5169780A",
  "about": "“Enantiomeric enrichment and stereoselective synthesis of chiral amines” (Celgene Corporation, priority 1990, dated 1992)",
  "key": {"[1]": {"test_system": "omega-amino acid transaminase", "assay": "standardized omega-amino acid transaminase activity assay (1-phenylbutan-3-one formed from R,S-1-phenyl-3-aminobutane), B. megaterium enzyme", "type": "biochemical, Bacillus megaterium", "details": "stereoselectivity: 15 mM R-1-phenyl-3-aminobutane versus R,S-, with pyruvate", "protocol": "(§1) Enzyme Activity: Enzyme activity is expressed herein as units/mg. A unit of enzyme activity is defined as that which produces 1 micromole of ketone per minute. For uniformity, this is measured as micromoles of 1-phenylbutan-3-one formed from R,S-1-phenyl-3-aminobutane. The following standardized assay was utilized to measure the activity of the omega-amino acid transaminases set forth in the examples which follow.\n(§2) A known volume of the enzyme preparation to be tested is incubated at 37° C. and pH 7 in a solution having the following composition:\n(§3) A sample is removed and 20% by volume of 12% aqueous trichloroacetic acid are added. Precipitated protein is removed by centrifugation and the concentration of 1-phenylbutan-3-one in the supernatant is determined by liquid chromatography on a 100×8 mm 4 micron Novopak phenyl column eluting with 40% isopropanol and 0.09% phosphoric acid in water. Under these conditions, 1-phenylbutan-3-one elutes at 5.3 minutes.\n(§4) Enzyme extracts from P. putida, B. megaterium, and P. aeruginosa obtained as above were assayed as above at pH 9 in 50 mM of Tris/HCl using 30 mM of R,S-1-phenyl-3-aminobutane, with and without 100 mM of sodium pyruvate. The following relative rates of conversion were observed.\n(§5) The transaminase nature of the enzymatic action is apparent from the effect of \"suicide inactivators\" known to be specific for transaminases {see, for example, Burnett et al., J. Bio. Chem., 225, 428-432 (1980)}, the inactivator (0.5 mM) being preincubated with the assay medium before addition of R,S-1-phenyl-3-aminobutane.\n(§6) The stereoselectivity of the omega-amino acid transaminase can be seen from the corresponding assay utilizing 15 mM of R-1-phenyl-3-aminobutane (with pyruvate)."}, "[2]": {"target": "T1, omega-amino acid transaminase (Pseudomonas aeruginosa, UniProt Q9I700)", "T1 construct": "cell extracts containing the omega-amino acid transaminase then are obtained as therein described; host or cells: Pseudomonas aeruginosa ATCC 15692, cell extract", "T1 sequence (Q9I700 1-448)": "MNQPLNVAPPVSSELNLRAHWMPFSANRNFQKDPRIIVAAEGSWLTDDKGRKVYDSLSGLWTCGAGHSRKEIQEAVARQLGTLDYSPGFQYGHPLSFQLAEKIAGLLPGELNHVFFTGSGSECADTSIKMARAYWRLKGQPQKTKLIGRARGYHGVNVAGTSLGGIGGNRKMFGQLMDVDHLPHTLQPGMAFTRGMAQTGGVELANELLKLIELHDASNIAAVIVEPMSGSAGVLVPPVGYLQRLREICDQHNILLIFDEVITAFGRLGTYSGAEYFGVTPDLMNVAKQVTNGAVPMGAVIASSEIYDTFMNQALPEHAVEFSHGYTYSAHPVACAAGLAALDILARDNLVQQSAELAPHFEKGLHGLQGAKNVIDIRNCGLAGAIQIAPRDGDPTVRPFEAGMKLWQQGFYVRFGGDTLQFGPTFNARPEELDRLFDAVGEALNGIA", "assay": "standardized omega-amino acid transaminase activity assay, P. aeruginosa enzyme", "type": "biochemical", "details": "stereoselectivity: 15 mM R-1-phenyl-3-aminobutane versus R,S-, with pyruvate"}, "[3]": {"test_system": "omega-amino acid transaminase", "assay": "standardized omega-amino acid transaminase activity assay, P. putida enzyme", "type": "biochemical, Pseudomonas putida", "details": "stereoselectivity: 15 mM R-1-phenyl-3-aminobutane versus R,S-, with pyruvate", "protocol": "as §1, §2, §3\nPseudomonas putida ATCC 39213 was cultured as described in Example 1 and an enzyme extract then was obtained as therein described. The specific activity of the omega-amino acid transaminase was 0.045 units/mg.\nas §4, §5, §6"}, "Bacillus megaterium": {"test_system": "Bacillus megaterium", "assay": "induction of omega-amino acid transaminase production by addition of an amine to cultures", "type": "cell-based", "details": "2 mM amine inducer, 30 to 40 hours; for Specific Activity (units/mg) Acetate: 40 mM acetate as carbon source; for Specific Activity (units/mg) Succinate: 40 mM succinate as carbon source", "protocol": "as §1, §2, §3\nEnzyme Recovery: Unless otherwise indicated, cells from culture are centrifuged for 10 minutes at 10,000 G, resuspended in 10 mM of phosphate buffer at pH 7 and 0.5 mM of pyridoxal phosphate, and ruptured by two passes through a chilled French press operating at 15,000 psi. Cell debris is removed by centrifugation for one hour at 10,000 G and the enzyme-containing supernatant collected.\nThe following procedure exemplifies the growth of microorganisms using ammonium as the sole nitrogen source and then inducing omega-amino acid transaminase production by the addition of an amine.\nBacillus megaterium was grown in 1 L cultures in the standard salt medium supplemented with 40 mM of the indicated carbon source, 5 mM of ammonium chloride, 80 mM of phosphate buffer, and 2 mM of the amine inducer indicated below. After 30 to 40 hours, the enzyme was collected and assayed as described above."}, "[4]": {"test_system": "omega-amino acid transaminase", "assay": "relative rates of conversion of different chiral amines by soluble enzymatic preparations", "type": "biochemical", "protocol": "as §1, §2, §3\nThe following procedure exemplifies the relative rates of conversion, determined directly or calculated from kinetic data, of different chiral amines by soluble enzymatic preparations utilizing the assay described above but substituting the indicated chiral amine."}, "[5]": {"test_system": "omega-amino acid transaminase", "assay": "relative rates of conversion of 1-phenyl-3-aminobutane with different amino acceptors in place of pyruvate", "type": "biochemical", "details": "for Relative Rate of Conversion: substrate 1-phenyl-3-aminobutane", "protocol": "as §1, §2, §3\nThe following procedure exemplifies the relative rates of conversion with 1-phenyl-3-aminobutane employing different amino acceptors in place of pyruvate in the assay described above."}, "[6]": {"test_system": "omega-amino acid transaminase", "assay": "rate of immobilized enzyme reaction with added benzylacetone", "type": "biochemical, Bacillus megaterium", "details": "80 mM R,S-1-phenyl-3-aminobutane, 60 mM glyoxylate, pH 6.5", "protocol": "Immobilization: A 47 mm diameter […] (FMC Corp.) support matrix (0.4 g) was loaded into a housing (Millipore Sweenex) fitted with inlet and outlet tubing, a peristaltic pump, and reservoir. The matrix was washed sequentially, at ambient temperatures and a rate of 3 ml/min., with (1) 200 ml of 50 mM of phosphate buffer (pH 7) containing 0.5 mM pyridoxal phosphate over a period of 20 min., (2) 11 ml of a 4.6 mg/ml solution of enzyme obtained in the manner of Example 1 for 120 min., (3) 150 ml of 0.3 M sodium chloride in 50 mM of phosphate buffer (pH 7) containing 0.5 mM pyridoxal phosphate for 30 minutes, and (4) 200 ml of 50 mM of phosphate buffer (pH 7) containing 0.5 mM pyridoxal phosphate over a period of 20 min.\nA solution of omega-amino acid transaminase was immobilized onto a matrix according to the methods in Example 16. Four independent 200 milliliter substrate solutions containing 80 mM of R,S-1-phenyl-3-aminobutane, 60 mM glyoxylate, 0.1 mM pyridoxal phospate, and 50 mM potassium phosphate (pH 6.5) were prepared. Benzylacetone in concentrations of 0.50 mM, 0.85 mM, 1.45 mM, and 2.55 mM, respectively, were added to the four substrate solutions and these were pumped through the immobilized enzyme matrix. The rate of the enzyme catalyzed reaction was measured in micromoles/minute."}, "[7]": {"assay": "solvent-to-aqueous phase partition coefficient of the ketone", "type": "physicochemical", "details": "heptane as organic solvent", "text": "The organic solvent will normally be one in which the ketone produced is soluble to a greater degree than in water. Solvents in which the ketone has a solvent-to-aqueous phase partition coefficient greater than one are suitable and those with coefficients greater than 8 are preferred. Examples of these are liquid hydrocarbons such as benzene or hexane, halogenated hydrocarbons such as chloroform, dichloromethane or, carbon tetrachloride, various fluorocarbons such as freon, long-chain alcohols such as octanol or decanol, esters such as ethyl acetate, or triglyceride oils, A solvent which typifies this is heptane which has a partition coefficient of ≈24. Supercritical fluids such as supercritical CO2 may also be used."}, "β-alanine transaminase": {"test_system": "β-alanine transaminase", "details": "relative activities, Nakano et al. 1977; cited from earlier work"}, "[8]": {"test_system": "-aminobutyrate transaminase", "details": "relative activities, Nakano et al. 1977; cited from earlier work"}},
  "data": [
    {"smiles": "C[C@@H](N)CCc1ccccc1", "note": "[R-1-phenyl-3-aminobutane]", "values": [
      {"measurement": "Relative Rate of Conversion B. megaterium", "setting": "[1]", "result": 15},
      {"measurement": "Relative Rate of Conversion P. aeruginosa", "setting": "[2]", "result": 4},
      {"measurement": "Relative Rate of Conversion P. putida", "setting": "[3]", "result": 3},
      {"measurement": "Specific Activity (units/mg) Acetate", "setting": "Bacillus megaterium", "result": 0.26, "unit": "units/mg"},
      {"measurement": "Specific Activity (units/mg) Succinate", "setting": "Bacillus megaterium", "result": 0.21, "unit": "units/mg"},
      {"measurement": "conversion to 1-phenylbutan-3-one as a factor of that of the S-form", "setting": "[4]; general statement of the description", "result": "≤ 0.05"}
    ]},
    {"smiles": "CC[C@@H](C)N", "note": "[R-2-aminobutane]", "values": [
      {"measurement": "Specific Activity (units/mg) Acetate", "setting": "Bacillus megaterium", "result": 0.13, "unit": "units/mg"},
      {"measurement": "Specific Activity (units/mg) Succinate", "setting": "Bacillus megaterium", "result": 0.06, "unit": "units/mg"}
    ]},
    {"smiles": "CC=O", "note": "[acetaldehyde]", "values": [
      {"measurement": "Relative Rate of Conversion", "setting": "[5]; amino acceptor 20 mM", "result": 50}
    ]},
    {"smiles": "CC(=O)c1ccccc1", "note": "[acetophenone]", "values": [
      {"measurement": "relative rates", "setting": "[5]; as amino acceptor, concentration not given", "result": "≤ 10"}
    ]},
    {"smiles": "O=Cc1ccccc1", "note": "[benzaldehyde]", "values": [
      {"measurement": "Relative Rate of Conversion", "setting": "[5]; amino acceptor 25 mM", "result": 17}
    ]},
    {"smiles": "CC(=O)CCc1ccccc1", "note": "[benzylacetone]", "values": [
      {"measurement": "ENZYME ACTIVITY", "setting": "[6]; benzylacetone 0.50 mM", "result": 11.2, "unit": "µM/min"},
      {"measurement": "ENZYME ACTIVITY", "setting": "[6]; benzylacetone 0.85 mM", "result": 9.5, "unit": "µM/min"},
      {"measurement": "ENZYME ACTIVITY", "setting": "[6]; benzylacetone 1.45 mM", "result": 8.1, "unit": "µM/min"},
      {"measurement": "ENZYME ACTIVITY", "setting": "[6]; benzylacetone 2.55 mM", "result": 6.1, "unit": "µM/min"}
    ]},
    {"smiles": "CCC(C)=O", "note": "[butan-2-one]", "values": [
      {"measurement": "Relative Rate of Conversion", "setting": "[5]; amino acceptor 20 mM", "result": 20}
    ]},
    {"smiles": "CCCC=O", "note": "[butyraldehyde]", "values": [
      {"measurement": "Relative Rate of Conversion", "setting": "[5]; amino acceptor 20 mM", "result": 90}
    ]},
    {"smiles": "O=C1CCCCC1", "note": "[cyclohexanone]", "values": [
      {"measurement": "Relative Rate of Conversion", "setting": "[5]; amino acceptor 25 mM", "result": 23}
    ]},
    {"smiles": "O=C1CCCC1", "note": "[cyclopentanone]", "values": [
      {"measurement": "Relative Rate of Conversion", "setting": "[5]; amino acceptor 25 mM", "result": 12}
    ]},
    {"smiles": "O=CC(=O)O", "note": "[glyoxalate]", "values": [
      {"measurement": "Relative Rate of Conversion", "setting": "[5]; amino acceptor 20 mM", "result": 50}
    ]},
    {"smiles": "CCCCCCC=O", "note": "[heptaldehyde]", "values": [
      {"measurement": "Relative Rate of Conversion", "setting": "[5]; amino acceptor 25 mM", "result": 80}
    ]},
    {"smiles": "CCCCCCC", "note": "[heptane]", "values": [
      {"measurement": "partition coefficient (ketone, solvent-to-aqueous phase)", "setting": "[7]", "result": "≈ 24"}
    ]},
    {"smiles": "NC(CO)c1ccccc1", "note": "(stereo not shown) [phenylglycinol]", "values": [
      {"measurement": "Relative Rate of Conversion R-enantiomer", "setting": "[4]; amine (R,S) 10 mM", "result": 100},
      {"measurement": "Relative Rate of Conversion S-enantiomer", "setting": "[4]; amine (R,S) 10 mM", "result": 0}
    ]},
    {"smiles": "CCC=O", "note": "[propionaldehyde]", "values": [
      {"measurement": "Relative Rate of Conversion", "setting": "[5]; amino acceptor 20 mM", "result": 100}
    ]},
    {"smiles": "NCCc1ccc(O)cc1", "note": "[tyramine]", "values": [
      {"measurement": "Specific Activity (units/mg) Acetate", "setting": "Bacillus megaterium", "result": 0.24, "unit": "units/mg"}
    ]},
    {"smiles": "NCCC(=O)O", "note": "[β-alanine]", "values": [
      {"measurement": "activity of β-alanine transaminase on the substrate", "setting": "β-alanine transaminase", "result": 100},
      {"measurement": "activity of -aminobutyrate transaminase on the substrate", "setting": "[8]", "result": 3}
    ]}
  ]
}
